Like-named read-outs stand apart in the source and are kept apart here.
What was measured:
[1] = target: NEK7 (Homo sapiens (Human), UniProt Q8TDX7+Q96SW2); experiment: NEK7 NanoBiT degradation assay in Cal51 NEK7 NanoBiT cell line; type: cell-based; conditions: Cal51 NEK7 NanoBiT cells, 24 hours; for Dmax: CAL-51
Procedure, shortened: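 Cal51 cells with CRISPR knock-in HiBiT-tagged endogenous NEK7 plus stable LgBiT, in live-cell Endurazine medium, seeded 16 h before dosing. Compounds at final 1 μM to 0.05 nM for 24 h at 37 °C, then luminescence read. Response normalized to plate controls and fitted with a 4-parameter logistic giving EC50.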

[2] = target: CRBN-DDB1 (Homo sapiens (Human), UniProt Q96SW2); experiment: Compound binding to CRBN by HTRF assay
CRBN-DDB1, sequence (Q96SW2 whole entry): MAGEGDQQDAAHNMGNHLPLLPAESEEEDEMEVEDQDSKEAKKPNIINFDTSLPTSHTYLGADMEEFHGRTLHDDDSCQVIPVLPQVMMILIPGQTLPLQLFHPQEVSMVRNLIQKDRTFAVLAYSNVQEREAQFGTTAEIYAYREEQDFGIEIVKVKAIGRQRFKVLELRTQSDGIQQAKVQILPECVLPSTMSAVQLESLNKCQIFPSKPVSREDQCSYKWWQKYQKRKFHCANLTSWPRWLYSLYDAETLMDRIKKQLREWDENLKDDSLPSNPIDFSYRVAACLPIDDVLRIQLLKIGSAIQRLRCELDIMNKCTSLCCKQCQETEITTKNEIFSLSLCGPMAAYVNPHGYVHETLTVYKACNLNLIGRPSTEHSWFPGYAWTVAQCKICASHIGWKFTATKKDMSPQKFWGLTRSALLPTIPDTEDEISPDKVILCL
CRBN-DDB1, sequence (Q16531 whole entry partner): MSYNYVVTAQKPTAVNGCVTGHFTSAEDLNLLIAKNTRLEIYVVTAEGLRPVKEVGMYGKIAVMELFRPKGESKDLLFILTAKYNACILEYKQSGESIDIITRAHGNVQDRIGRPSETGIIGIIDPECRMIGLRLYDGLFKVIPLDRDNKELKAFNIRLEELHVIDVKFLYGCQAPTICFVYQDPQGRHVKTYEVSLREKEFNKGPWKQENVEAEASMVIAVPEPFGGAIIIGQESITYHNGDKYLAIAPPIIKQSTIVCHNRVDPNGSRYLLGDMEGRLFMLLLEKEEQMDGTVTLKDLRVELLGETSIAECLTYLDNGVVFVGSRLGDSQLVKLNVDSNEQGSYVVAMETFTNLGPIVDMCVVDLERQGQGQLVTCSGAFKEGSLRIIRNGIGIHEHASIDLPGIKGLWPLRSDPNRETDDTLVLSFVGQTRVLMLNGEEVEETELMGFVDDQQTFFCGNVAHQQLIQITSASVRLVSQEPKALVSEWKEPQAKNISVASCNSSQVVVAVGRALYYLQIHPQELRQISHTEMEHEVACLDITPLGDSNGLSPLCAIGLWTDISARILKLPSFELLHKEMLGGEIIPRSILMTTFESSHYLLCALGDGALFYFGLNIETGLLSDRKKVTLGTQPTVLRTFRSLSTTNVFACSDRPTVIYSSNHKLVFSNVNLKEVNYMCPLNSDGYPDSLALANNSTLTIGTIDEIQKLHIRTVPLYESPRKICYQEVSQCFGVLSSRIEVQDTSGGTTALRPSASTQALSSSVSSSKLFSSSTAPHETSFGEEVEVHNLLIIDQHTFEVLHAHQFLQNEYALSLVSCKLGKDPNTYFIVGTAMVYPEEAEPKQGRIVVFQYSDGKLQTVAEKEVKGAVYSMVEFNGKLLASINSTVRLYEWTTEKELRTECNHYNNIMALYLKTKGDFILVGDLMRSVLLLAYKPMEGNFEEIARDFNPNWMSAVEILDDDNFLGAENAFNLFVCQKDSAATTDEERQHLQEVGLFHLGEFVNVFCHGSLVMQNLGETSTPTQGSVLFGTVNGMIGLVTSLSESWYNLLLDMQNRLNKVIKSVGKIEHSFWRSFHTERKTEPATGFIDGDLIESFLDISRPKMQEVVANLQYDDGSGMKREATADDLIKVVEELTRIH
Procedure, shortened: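 HTRF displacement of Cy5-thalidomide probe (100 nM) from His-tagged CRBN-DDB1 (2.5 nM) with anti-His terbium cryptate, in HEPES/NaCl/TCEP/EDTA/Tween20 buffer; 11-point 1:3 dilution series, 30 min at ambient temperature. Signal (665/620 nm) normalized to lenalidomide and DMSO controls; EC50 fitted, Ki by Cheng-Prusoff from geometric mean EC50.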

[3] = NEK7 degradation, read-out: NanoBiT Dmax
[4] = NEK7 degradation, read-out: NanoBiT DC50

NEK7, sequence (Q8TDX7 whole entry): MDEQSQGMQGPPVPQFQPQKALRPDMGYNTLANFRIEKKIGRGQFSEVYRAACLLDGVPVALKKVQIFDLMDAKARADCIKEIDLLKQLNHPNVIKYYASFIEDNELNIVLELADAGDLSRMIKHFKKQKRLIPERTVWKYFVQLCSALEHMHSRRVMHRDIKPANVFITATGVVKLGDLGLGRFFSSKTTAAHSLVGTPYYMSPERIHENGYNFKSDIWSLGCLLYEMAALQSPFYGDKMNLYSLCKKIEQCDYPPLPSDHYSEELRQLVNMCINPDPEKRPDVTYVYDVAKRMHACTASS
NEK7, sequence (Q96SW2 whole entry): as the sequence (Q96SW2 whole entry) above
NEK7, sequence (Q16531 2-1140 partner): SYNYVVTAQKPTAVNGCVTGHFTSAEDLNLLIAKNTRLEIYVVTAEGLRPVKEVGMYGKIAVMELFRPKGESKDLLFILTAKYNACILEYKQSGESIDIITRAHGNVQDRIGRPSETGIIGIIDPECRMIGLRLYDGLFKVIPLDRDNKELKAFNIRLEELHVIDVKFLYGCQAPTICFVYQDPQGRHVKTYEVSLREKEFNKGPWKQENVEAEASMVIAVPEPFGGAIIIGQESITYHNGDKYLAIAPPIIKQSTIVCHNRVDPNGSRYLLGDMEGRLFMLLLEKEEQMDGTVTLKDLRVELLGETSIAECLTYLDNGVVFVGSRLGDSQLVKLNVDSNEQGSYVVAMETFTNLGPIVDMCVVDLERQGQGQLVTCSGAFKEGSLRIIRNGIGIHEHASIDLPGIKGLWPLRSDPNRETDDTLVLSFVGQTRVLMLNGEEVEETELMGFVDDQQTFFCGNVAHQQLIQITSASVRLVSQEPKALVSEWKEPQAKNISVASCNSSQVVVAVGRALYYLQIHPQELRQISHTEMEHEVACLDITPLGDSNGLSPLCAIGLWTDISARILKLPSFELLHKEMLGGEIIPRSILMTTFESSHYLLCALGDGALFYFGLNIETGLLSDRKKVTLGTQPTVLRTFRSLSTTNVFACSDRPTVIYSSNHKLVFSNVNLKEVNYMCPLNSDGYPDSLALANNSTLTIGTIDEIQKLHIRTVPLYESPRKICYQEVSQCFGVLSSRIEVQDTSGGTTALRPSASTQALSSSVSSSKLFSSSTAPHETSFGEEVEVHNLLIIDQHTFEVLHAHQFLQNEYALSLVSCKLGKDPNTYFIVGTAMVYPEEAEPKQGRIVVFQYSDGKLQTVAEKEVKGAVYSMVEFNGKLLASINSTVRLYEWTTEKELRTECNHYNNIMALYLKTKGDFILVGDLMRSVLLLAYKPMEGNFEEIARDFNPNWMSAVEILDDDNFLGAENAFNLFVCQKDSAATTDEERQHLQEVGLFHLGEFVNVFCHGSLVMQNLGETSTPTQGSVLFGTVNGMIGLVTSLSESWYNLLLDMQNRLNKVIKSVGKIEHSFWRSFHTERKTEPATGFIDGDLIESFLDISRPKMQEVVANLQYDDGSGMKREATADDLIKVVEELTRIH

## O=C1CCC(c2c(Cl)cc(CNC(=O)C3(c4ccc5[nH]ncc5c4)CCOCC3)cc2Cl)C(=O)N1 (stereo not drawn) [Compound 132, N-(3,5-dichloro-4-(2,6-dioxopiperidin-3-yl)benzyl)-4-(1H-indazol-5-yl)tetrahydro-2H-pyran-4-carboxamide]
[1]; read-out: NEK7 NanoBiT Dmax
  Dmax: 92%
[1]; [3]
  Dmax: > 75%
[1]; read-out: NEK7 NanoBiT DC50
  DC50: 5 nM
[1]; [4]
  DC50: ≤ 100 nM
[2]
  EC50: 50 nM
[2]; HTRF class, Cereblon binding
  EC50: ≤ 100 nM

## Cc1cnc(C(C)(C)C(=O)NCc2cc(F)c(C3CCC(=O)NC3=O)c(Cl)c2)o1 (stereo not drawn) [Compound 270, N-(3-chloro-4-(2,6-dioxopiperidin-3-yl)-5-fluorobenzyl)-2-methyl-2-(5-methyloxazol-2-yl)propanamide]
[1]; read-out: NEK7 NanoBiT Dmax
  Dmax: 72%
[1]; [3]
  Dmax: 50 to 75%
[1]; read-out: NEK7 NanoBiT DC50
  DC50: 73 nM
[1]; [4]
  DC50: ≤ 100 nM
[2]
  EC50: 190 nM
[2]; HTRF class, Cereblon binding
  EC50: 100 to 1000 nM

## O=C1CCC(c2c(Cl)cc(CNC(=O)C3(c4ccncc4)CCC3)cc2Cl)C(=O)N1 (stereo not drawn) [Compound 144]
[1]; read-out: NEK7 NanoBiT Dmax
  Dmax: 78%
[1]; [3]
  Dmax: > 75%
[1]; read-out: NEK7 NanoBiT DC50
  DC50: 6 nM
[1]; [4]
  DC50: ≤ 100 nM
[2]
  EC50: 50 nM
[2]; HTRF class, Cereblon binding
  EC50: ≤ 100 nM

## CC(C)(C(=O)NCc1cc(Cl)c(C2CCC(=O)NC2=O)c(Cl)c1)c1ncc(C2CC2)cn1 (stereo not drawn) [Compound 1, 2-(5-cyclopropylpyrimidin-2-yl)-N-(3,5-dichloro-4-(2,6-dioxopiperidin-3-yl)benzyl)-2-methylpropan-amide]
[1]; read-out: NEK7 NanoBiT Dmax
  Dmax: 89%
[1]; [3]
  Dmax: > 75%
[1]; read-out: NEK7 NanoBiT DC50
  DC50: 9 nM
[1]; [4]
  DC50: ≤ 100 nM
[2]
  EC50: 150 nM
[2]; HTRF class, Cereblon binding
  EC50: 100 to 1000 nM

## CC(C)(C(=O)NCc1cc(F)c(C2CCC(=O)NC2=O)c(Cl)c1)c1nocc1C(F)(F)F (stereo not drawn) [Compound 278]
[1]; read-out: NEK7 NanoBiT Dmax
  Dmax: 71%
[1]; [3]
  Dmax: 50 to 75%
[1]; read-out: NEK7 NanoBiT DC50
  DC50: 76 nM
[1]; [4]
  DC50: ≤ 100 nM
[2]
  EC50: 190 nM
[2]; HTRF class, Cereblon binding
  EC50: 100 to 1000 nM

## CCc1cnc(C(C)(C)C(=O)NCc2cc(Cl)c(C3CCC(=O)NC3=O)c(Cl)c2)cn1 (stereo not drawn) [Compound 247]
[1]; read-out: NEK7 NanoBiT Dmax
  Dmax: 83%
[1]; [3]
  Dmax: > 75%
[1]; read-out: NEK7 NanoBiT DC50
  DC50: 20 nM
[1]; [4]
  DC50: ≤ 100 nM
[2]
  EC50: 120 nM
[2]; HTRF class, Cereblon binding
  EC50: 100 to 1000 nM

## CC(C)(C(=O)NCc1cc(Cl)c(C2CCC(=O)NC2=O)c(Cl)c1)c1ccc2c(c1)S(=O)(=O)NC2 (stereo not drawn) [Compound 32, N-(3,5-dichloro-4-(2,6-dioxopiperidin-3-yl)benzyl)-2-(1,1-dioxido-2,3-dihydrobenzo[d]isothiazol-6-yl)-2-methylpropanamide]
[1]; read-out: NEK7 NanoBiT Dmax
  Dmax: 95%
[1]; [3]
  Dmax: > 75%
[1]; read-out: NEK7 NanoBiT DC50
  DC50: 4 nM
[1]; [4]
  DC50: ≤ 100 nM
[2]
  EC50: 110 nM
[2]; HTRF class, Cereblon binding
  EC50: 100 to 1000 nM

## Cn1ccc(C2(C(=O)NCc3cc(Cl)c(C4CCC(=O)NC4=O)c(Cl)c3)CCC2)cc1=O (stereo not drawn) [Compound 177]
[1]; read-out: NEK7 NanoBiT Dmax
  Dmax: 85%
[1]; [3]
  Dmax: > 75%
[1]; read-out: NEK7 NanoBiT DC50
  DC50: 53 nM
[1]; [4]
  DC50: ≤ 100 nM
[2]
  EC50: 550 nM
[2]; HTRF class, Cereblon binding
  EC50: 100 to 1000 nM

## CC(C)(C(=O)NCc1cc(Cl)c(C2CCC(=O)NC2=O)c(Cl)c1)c1cc(F)nc(F)c1 (stereo not drawn) [Compound 73]
[1]; read-out: NEK7 NanoBiT Dmax
  Dmax: 93%
[1]; [3]
  Dmax: > 75%
[1]; read-out: NEK7 NanoBiT DC50
  DC50: 4 nM
[1]; [4]
  DC50: ≤ 100 nM
[2]
  EC50: 170 nM
[2]; HTRF class, Cereblon binding
  EC50: 100 to 1000 nM

## CC1(c2cnc(C(C)(C)C(=O)NCc3cc(Cl)c(C4CCC(=O)NC4=O)c(Cl)c3)nc2)CC1 (stereo not drawn) [Compound 207]
[1]; read-out: NEK7 NanoBiT Dmax
  Dmax: 82%
[1]; [3]
  Dmax: > 75%
[1]; read-out: NEK7 NanoBiT DC50
  DC50: 19 nM
[1]; [4]
  DC50: ≤ 100 nM
[2]
  EC50: 90 nM
[2]; HTRF class, Cereblon binding
  EC50: ≤ 100 nM

## Cc1cnc(C(C)(C)C(=O)NCc2cc(Cl)c([C@H]3CCC(=O)NC3=O)c(Cl)c2)nc1 (single isomer, unassigned) [Compound 155]
[1]; read-out: NEK7 NanoBiT Dmax
  Dmax: 75%
[1]; [3]
  Dmax: 50 to 75%
[1]; read-out: NEK7 NanoBiT DC50
  DC50: 186 nM
[1]; [4]
  DC50: 100 to 1000 nM
[2]
  EC50: ≥ 10000 nM
[2]; HTRF class, Cereblon binding
  EC50: > 1000 nM

## O=C1CCC(c2ccc(CNC(=O)C3(c4ccc(F)cc4)CCOCC3)cc2Cl)C(=O)N1 (stereo not drawn) [Compound 138]
[1]; read-out: NEK7 NanoBiT Dmax
  Dmax: 88%
[1]; [3]
  Dmax: > 75%
[1]; read-out: NEK7 NanoBiT DC50
  DC50: 26 nM
[1]; [4]
  DC50: ≤ 100 nM
[2]
  EC50: 180 nM
[2]; HTRF class, Cereblon binding
  EC50: 100 to 1000 nM

## CC(C)(C(=O)NCc1cc(Cl)c(C2CCC(=O)NC2=O)c(Cl)c1)c1ccc(O)c(F)c1 (stereo not drawn) [Compound 80]
[1]; read-out: NEK7 NanoBiT Dmax
  Dmax: 97%
[1]; [3]
  Dmax: > 75%
[1]; read-out: NEK7 NanoBiT DC50
  DC50: 1 nM
[1]; [4]
  DC50: ≤ 100 nM
[2]
  EC50: 30 nM
[2]; HTRF class, Cereblon binding
  EC50: ≤ 100 nM

## CC(C)(C(=O)NCc1cc(Cl)c(C2CCC(=O)NC2=O)c(Cl)c1)c1nccc(C2CC2)n1 (stereo not drawn) [Compound 168]
[1]; read-out: NEK7 NanoBiT Dmax
  Dmax: 57%
[1]; [3]
  Dmax: 50 to 75%
[1]; read-out: NEK7 NanoBiT DC50
  DC50: 137 nM
[1]; [4]
  DC50: 100 to 1000 nM
[2]
  EC50: 150 nM
[2]; HTRF class, Cereblon binding
  EC50: 100 to 1000 nM

## CC(C)(C(=O)NCc1cc(Cl)c(C2CCC(=O)NC2=O)c(Cl)c1)c1cccnn1 (stereo not drawn) [Compound 7, N-(3,5-dichloro-4-(2,6-dioxopiperidin-3-yl)benzyl)-2-methyl-2-(pyridazin-3-yl)propanamide]
[1]; read-out: NEK7 NanoBiT Dmax
  Dmax: 72%
[1]; [3]
  Dmax: 50 to 75%
[1]; read-out: NEK7 NanoBiT DC50
  DC50: 61 nM
[1]; [4]
  DC50: ≤ 100 nM
[2]
  EC50: 150 nM
[2]; HTRF class, Cereblon binding
  EC50: 100 to 1000 nM

## Cc1nc(CNC(=O)C(C)(C)c2ccccc2)cc(Cl)c1C1CCC(=O)NC1=O (stereo not drawn) [Compound 239, N-((4-chloro-5-(2,6-dioxopiperidin-3-yl)-6-methylpyridin-2-yl)methyl)-2-methyl-2-phenylpropanamide]
[1]; read-out: NEK7 NanoBiT Dmax
  Dmax: 47%
[1]; [3]
  Dmax: ≤ 50%
[1]; read-out: NEK7 NanoBiT DC50
  DC50: 909 nM
[1]; [4]
  DC50: 100 to 1000 nM
[2]
  EC50: 660 nM
[2]; HTRF class, Cereblon binding
  EC50: 100 to 1000 nM

## COc1cnc(C(C)(C)C(=O)NCc2cc(Cl)c(C3CCC(=O)NC3=O)c(Cl)c2)nc1C (stereo not drawn) [Compound 221, N-(3,5-dichloro-4-(2,6-dioxopiperidin-3-yl)benzyl)-2-(5-methoxy-4-methylpyrimidin-2-yl)-2-methylpropanamide]
[1]; read-out: NEK7 NanoBiT Dmax
  Dmax: 83%
[1]; [3]
  Dmax: > 75%
[1]; read-out: NEK7 NanoBiT DC50
  DC50: 19 nM
[1]; [4]
  DC50: ≤ 100 nM
[2]
  EC50: 80 nM
[2]; HTRF class, Cereblon binding
  EC50: ≤ 100 nM

## CC(C)(C(=O)NCc1cc(Cl)c(C2CCC(=O)NC2=O)c(Cl)c1)c1ccc(C(N)=O)cc1 (stereo not drawn) [Compound 83]
[1]; read-out: NEK7 NanoBiT Dmax
  Dmax: 94%
[1]; [3]
  Dmax: > 75%
[1]; read-out: NEK7 NanoBiT DC50
  DC50: 7 nM
[1]; [4]
  DC50: ≤ 100 nM
[2]
  EC50: 140 nM
[2]; HTRF class, Cereblon binding
  EC50: 100 to 1000 nM

## CC(C)(C(=O)NCc1ccc(C2CCC(=O)NC2=O)c(Cl)c1)c1ccc(S(N)(=O)=O)cc1 (stereo not drawn) [Compound 56]
[1]; read-out: NEK7 NanoBiT Dmax
  Dmax: 67%
[1]; [3]
  Dmax: 50 to 75%
[1]; read-out: NEK7 NanoBiT DC50
  DC50: 244 nM
[1]; [4]
  DC50: 100 to 1000 nM
[2]
  EC50: 470 nM
[2]; HTRF class, Cereblon binding
  EC50: 100 to 1000 nM

## CC(C)(C(=O)NCc1cc(Cl)c(C2CCC(=O)NC2=O)c(Cl)c1)c1ccc2nccnc2c1 (stereo not drawn) [Compound 49]
[1]; read-out: NEK7 NanoBiT Dmax
  Dmax: 99%
[1]; [3]
  Dmax: > 75%
[1]; read-out: NEK7 NanoBiT DC50
  DC50: 0.1 nM
[1]; [4]
  DC50: ≤ 100 nM
[2]
  EC50: 70 nM
[2]; HTRF class, Cereblon binding
  EC50: ≤ 100 nM

## CC(C)(C(=O)NCc1cc(Cl)c(C2CCC(=O)NC2=O)c(Cl)c1)C1CCCC1 (stereo not drawn) [Compound 213]
[1]; read-out: NEK7 NanoBiT Dmax
  Dmax: 78%
[1]; [3]
  Dmax: > 75%
[1]; read-out: NEK7 NanoBiT DC50
  DC50: 33 nM
[1]; [4]
  DC50: ≤ 100 nM
[2]
  EC50: 80 nM
[2]; HTRF class, Cereblon binding
  EC50: ≤ 100 nM

## CC(C)(O)c1ccc(C(C)(C)C(=O)NCc2cc(Cl)c(C3CCC(=O)NC3=O)c(Cl)c2)nn1 (stereo not drawn) [Compound 203]
[1]; read-out: NEK7 NanoBiT Dmax
  Dmax: 94%
[1]; [3]
  Dmax: > 75%
[1]; read-out: NEK7 NanoBiT DC50
  DC50: 4 nM
[1]; [4]
  DC50: ≤ 100 nM
[2]
  EC50: 200 nM
[2]; HTRF class, Cereblon binding
  EC50: 100 to 1000 nM

## COc1cnc(C(C)(C)C(=O)NCc2cc(Cl)c(C3CCC(=O)NC3=O)c(Cl)c2)nc1 (stereo not drawn) [Compound 189]
[1]; read-out: NEK7 NanoBiT Dmax
  Dmax: 94%
[1]; [3]
  Dmax: > 75%
[1]; read-out: NEK7 NanoBiT DC50
  DC50: 4 nM
[1]; [4]
  DC50: ≤ 100 nM
[2]
  EC50: 70 nM
[2]; HTRF class, Cereblon binding
  EC50: ≤ 100 nM

## COc1cc(C(C)(C)C(=O)NCc2cc(Cl)c(C3CCC(=O)NC3=O)c(Cl)c2)ccn1 (stereo not drawn) [Compound 98]
[1]; read-out: NEK7 NanoBiT Dmax
  Dmax: 95%
[1]; [3]
  Dmax: > 75%
[1]; read-out: NEK7 NanoBiT DC50
  DC50: 3 nM
[1]; [4]
  DC50: ≤ 100 nM
[2]
  EC50: 110 nM
[2]; HTRF class, Cereblon binding
  EC50: 100 to 1000 nM

— patent publication US20250243180A1, “TARGETED PROTEIN DEGRADATION” (Monte Rosa Therapeutics AG, priority 2023, published 2025)
